Data on 14 compounds can be found in PMC6754500, “Ultra-long-acting tunable biodegradable and removable controlled release implants for drug delivery” (Nature Communications, 2019).

Structures are written as SMILES. Converted amounts (≈) assume the structure as drawn. Counter-ions that a name gives are not always drawn. Like-named read-outs stand apart in the source and are kept apart here. A value given as a limit tells only on which side of the number the result lay.

A short description of data set [1]: Saturation concentration (solubility) of drugs in NMP. The data set is classed as physicochemical. Particulars: quantified by HPLC; for solubility at 24 h: 40 °C, organic solvent or mixture, thermodynamic from solid. On the procedure: The saturation concentration of a panel of fourteen (14) antiretroviral drugs in NMP was determined. For each drug, 100 mg was weighed into individual vials and 100 mg of NMP was added to each vial. The mixture was stirred at 40 °C for 24 h. […] Sample aliquots (1–2 mg, n = 4) were collected from the saturated supernatant and diluted with acetonitrile (ACN). Drug concentration in the saturated aliquots was determined by HPLC analysis.

The conditions of data set [2]: cited from earlier work; for pKa: Supplementary Table 1; for LogP: log of drug partition coefficient, ref drugbank.ca.
The subject of a further data set is HIV-1. The settings on record: cited from earlier work; for IC90: Supplementary Table 1.
A short description of data set [3]: Saturation solubility in PBS with or without 2% solutol. The data set is classed as physicochemical. Particulars: for solubility: HPLC.
The conditions of data set [4]: pH 7; cited from earlier work.
The next data set relates to HIV-1JR-CSF. The data set can be described thus: In vitro HIV-1 inhibition in TZM-bl cells. The class given is cell-based. The settings on record: Human immunodeficiency virus 1, read-out: Effective concentration required to inhibit virus replication by 50% (IC50), DTG eluted (24 h in PBS) from solidified DTG-ISFI stored 6 months at 25 °C.

As usually defined, the solubility is how much of the substance goes into solution per volume. The term pKa denotes the pH at which an ionisable group is half protonated. The LogP is a log measure of how a compound divides between an organic and an aqueous phase. Broadly, the IC90 is the point of the concentration-response curve where the effect stands at 90%.

Protocol for HIV-1JR-CSF: DTG-ISFI formulation was stored for 6 months at 25 °C and then solidified in PBS. The concentration of DTG eluted from the solidified implant after 24 h incubation in PBS was determined by HPLC and its HIV inhibitory activity was assessed using TZM-bl cells as described in the methods section.
Viral particles were collected in tissue culture medium that was centrifugated at 2000×g for 20 min at 4 °C to remove cell debris. […] Infected TZM-bl cells were stained using a solution containing 4 µM potassium ferrocyanide, 4 µM potassium ferricyanide, 2 µM magnesium chloride, 0.4 mg/ml X-gal[55],[56] and stained cells counted. TZM-bl cells were cultured at 37 °C 10% CO2 in TZM-bl medium (Dulbecco’s Modified Eagle Medium (Sigma) supplemented with 10% heat-inactivated fetal bovine serum, 25 mM HEPES, 500 units/ml penicillin, 50 µg/ml streptomycin and 2 mM L-glutamine (Cellgro)), and regularly checked for morphology by microscope.
Cells were regularly checked for morphology by microscopy. […] Luciferase activity was measured with a SpectraMax M3 Spectrometer (Molecular Devices, Sunnyvale, CA) and the results normalized to the luciferase activity of cells infected with HIV in the absence of DTG and expressed as a percentage of decrease in luciferase activity. Activity was measured in 3 independent experiments, each dilution measured in quadruplicate.

With `Cc1cc(C#N)cc(C)c1Oc1nc(Nc2ccc(C#N)cc2)nc(N)c1Br` [Etravirine], the solubility at 24 h in data set [1] (N-methyl-2-pyrrolidone (NMP)) was determined as 122 ± 2 mg/mL (≈ 280 mM). Also, in data set [2], the pKa is 3.75 and the lipophilicity (LogP) was 5.54. Moreover, the IC90 in the data set with HIV-1 is 0.0013 µg/mL (≈ 2.99e-06 mM).

For `Cc1cn([C@H]2C=C[C@@H](CO)O2)c(=O)[nH]c1=O` [Stavudine], in data set [1] (N-methyl-2-pyrrolidone (NMP)), the solubility at 24 h was 248 ± 3 mg/mL (≈ 1110 mM). Moreover, in data set [2], the pKa is 10.26 and the LogP is on record as -0.7. The IC90 with HIV-1 is 0.03 to 0.3 µg/mL.

With `CC(C)OC(=O)OCOP(=O)(CO[C@H](C)Cn1cnc2c(N)ncnc21)OCOC(=O)OC(C)C` [TenofovirDisoproxil Fumarate], the solubility at 24 h in data set [1] (N-methyl-2-pyrrolidone (NMP)) was 156 ± 2 mg/mL. Further, the IC90 in the data set on HIV-1 was 0.00554 µg/mL.

`CC(C)CN(C[C@@H](O)[C@H](Cc1ccccc1)NC(=O)O[C@H]1CO[C@H]2OCC[C@H]21)S(=O)(=O)c1ccc(N)cc1` [Darunavir]: the solubility at 24 h in data set [1] (N-methyl-2-pyrrolidone) was found to be 511 ± 2 mg/mL (≈ 933 mM). For the same compound, in the data set with HIV-1, the IC90 was 0.00243 µg/mL (≈ 4.44e-06 mM) and the “Protein-adjusted IC90 (PA-IC90)” value is 0.0024 µg/mL.

Regarding `CC(C)c1nc(CN(C)C(=O)N[C@H](C(=O)N[C@@H](Cc2ccccc2)C[C@H](O)[C@H](Cc2ccccc2)NC(=O)OCc2cncs2)C(C)C)cs1` [Ritonavir], the IC90 in the data set on HIV-1 is 2.1 µg/mL (≈ 0.00291 mM).

Regarding `Cc1ccnc2c1NC(=O)c1cccnc1N2C1CC1` [Nevirapine], in data set [2], the pKa is 2.8 and the log partition coefficient (LogP) is recorded as 2.5. Also, the IC90 in the data set with HIV-1 was 0.04 µg/mL (≈ 0.00015 mM).

In the case of `Cc1nnc(C(=O)NC(C)(C)c2nc(C(=O)NCc3ccc(F)cc3)c(O)c(=O)n2C)o1` [Raltegravir], the solubility at 24 h in data set [1] (N-methyl-2-pyrrolidone) came out at 54 ± 2 mg/mL (≈ 122 mM). For the same compound, in data set [2], the pKa is reported as 6.3 and the LogP was -0.39. Besides, the IC90 in the data set on HIV-1 was 0.00053 µg/mL (≈ 1.19e-06 mM).

With `O=C1Nc2ccc(Cl)cc2[C@@](C#CC2CC2)(C(F)(F)F)O1` [Efavirenz], the solubility at 24 h in data set [1] (N-methyl-2-pyrrolidone (NMP)) was determined as 118 ± 2 mg/mL (≈ 374 mM). Further, the log partition coefficient (LogP) in data set [2] was 4.6.

As for `Cc1cc(/C=C/C#N)cc(C)c1Nc1ccnc(Nc2ccc(C#N)cc2)n1` [Rilpivirine], the solubility at 24 h in data set [1] (N-methyl-2-pyrrolidone (NMP)) amounted to 228 ± 5 mg/mL (≈ 622 mM). In addition, in data set [2], the LogP is listed as 4.86. In the data set on HIV-1, the IC90 is 0.0125 µg/mL (≈ 3.41e-05 mM) and the “Protein-adjusted IC90 (PA-IC90)” value is 0.012 µg/mL.

As to `Nc1ccn([C@@H]2CS[C@H](CO)O2)c(=O)n1` [Lamivudine], in data set [1] (N-methyl-2-pyrrolidone (NMP)), the solubility at 24 h came out at 250 ± 3 mg/mL (≈ 1090 mM).

For `COC(=O)N[C@H](C(=O)N[C@@H](Cc1ccccc1)[C@@H](O)CN(Cc1ccc(-c2ccccn2)cc1)NC(=O)[C@@H](NC(=O)OC)C(C)(C)C)C(C)(C)C` [Atazanavir], the solubility at 24 h in data set [1] (N-methyl-2-pyrrolidone (NMP)) amounted to 328 ± 2 mg/mL (≈ 465 mM). For the same compound, in data set [2], the pKa is 4.3 and the log partition coefficient (LogP) was 4.5. Also, the “Protein-adjusted IC90 (PA-IC90)” value in the data set on HIV-1 was 0.014 µg/mL.

For the compound `CCN1C[C@H](C)n2c(c(O)c3c(=O)n(Cc4ccc(F)c(Cl)c4)nc(C(=O)NC)c32)C1=O` [MK-2048], the “Saturation solubility in NMP” value in data set [1] (N-methyl-2-pyrrolidone) came to 715 ± 5 mg/mL. Besides, the “Solubility in PBS + 2% solutol relative to PBS with no solutol” value in data set [3] (pH 7.4) is ~ 9 fold. The Solubility in water in data set [4] is less than 0.1 mg/mL. Further, the “in vitro 90% inhibitory concentration (IC90)” value in the data set on HIV-1 (against HIV-1) is given as ~ 0.033 μg/mL. The “Protein-adjusted IC90 (PA-IC90)” value in the data set on HIV-1 is 0.033 µg/mL.

Turning to `C[C@@H]1CCO[C@H]2Cn3cc(C(=O)NCc4ccc(F)cc4F)c(=O)c(O)c3C(=O)N12` [Dolutegravir], the solubility at 24 h in data set [1] (N-methyl-2-pyrrolidone (NMP)) came to 255 ± 4 mg/mL (≈ 608 mM). The IC50 in the data set with HIV-1JR-CSF came out at 0.0021 µg/mL (≈ 5.01e-06 mM). Moreover, the “Solubility in PBS + 2% solutol relative to PBS with no solutol” value in data set [3] (37 °C) was ~ 6 fold. Also, the solubility in data set [3] (PBS + 2% solutol, pH 7.4, aqueous with cosolvent or surfactant or cyclodextrin, thermodynamic from solid, 37 °C) amounted to 0.564 ± 0.0036 mg/mL; in data set [3] (PBS with no solutol, 37 °C, read-out: Solubility in PBS with no solutol) it was 0.091 mg/mL (≈ 0.217 mM). Besides, the LogP in data set [2] is recorded as 2.2. Also, the “in vitro protein-adjusted IC90 for HIV-1” value in the data set on HIV-1 is 0.064 µg/mL.

Turning to `Nc1nc(=O)n([C@@H]2CS[C@H](CO)O2)cc1F` [Emtricitabine], the solubility at 24 h in data set [1] (N-methyl-2-pyrrolidone (NMP)) came out at 202 ± 3 mg/mL (≈ 817 mM). Moreover, the concentration for an effect of 90% (IC90) in the data set on HIV-1 was 0.051 µg/mL (≈ 0.000206 mM).
